Laboratory results reported in EP4656207A1, “IN VITRO METHOD FOR T[…] TARGET CELL” (Fundació Hospital Universitari Vall Hebron - Institut de …, priority 2024, dated 2025).

How the values were obtained:
[1] = tested on: CD34^+ cells; assay: Lentiviral transduction enhancement in CD34+ hematopoietic cells (flow cytometry); type: cell-based, human; conditions: peptides at 3 µM, LB 5 mg/mL; MOI = 1; days 3, 7 and 14 after transduction; only K18-8R and LentiBoost statistically significant vs basal transduction (Figure 4)
Protocol: • 1. The CD34^+ cells were isolated from apheresis products from healthy donors and cryopreserved in liquid nitrogen until use. Cells were then thawed, counted with trypan blue, and seeded in culture-treated 96-well flat-bottom plates, about 50.000 cells per well in 100 µL of complete StemSpan™ SFEM Hematopoietic Cell Culture Medium (SFEM medium) (Stem Cell Technologies™, Vancouver, Canada), and incubated at 37°C, 5% CO2 and 100% relative humidity. The complete medium was supplemented with recombinant human stem cell factor (rhSCF), recombinant human flt3 ligand (rhFlt3-L) and recombinant human thrombopoietin (rhTpo) (all from EuroBioScience, Friesoythe, Germany). • 2. After 24 h in culture, the cells were transduced as follow: Previously, the required volume of lentiviral vector was calculated in accordance with the vector titer, the CD34^+ target cell number and the desired MOI. Prior to its use, the vector was diluted in complete SFEM medium. • 3. […] Finally, at 3, 7 and 14 days post-transduction, the cells were analyzed by flow cytometry and the plates were stored at -80° for future analyses.
(§1) Transduction efficiency was analyzed using an LSR Fortessa cell analyzer (Becton, Dickinson, New Jersey, USA), after 3, 7 or 14 days post-transduction (depending on the target cell type). […]

[2] = tested on: HEK-293T cells; assay: Lentiviral transduction enhancement in HEK-293T cells (GFP+ cells by flow cytometry); type: cell-based, human; conditions: for transduction enhancing activity: K18-derived peptides at 1 µM compared with commercial TE, MOI = 1 (Figure 3)
Protocol: (§2) To carry out the transduction enhancement assays, 3000 cells (HEK-293T or NIH/3T3, both purchased at the ATCC) were seeded in 100 µL of culture medium (consisting of Dulbecco's Modified Eagle Medium (high glucose) (DMEM, Gibco™), supplemented with 10% fetal bovine serum (FBS), 1% L-glutamine and 1% penicillin/streptomycin (P/S) (both from Cultek S.L.U.), per well, in culture-treated flat-bottomed 96-well plates, and incubated for 24 h at 37° with 5% CO2 and 100% relative humidity.
(§3) The vector was diluted in complete medium, and the appropriate amounts were added to each well at the chosen MOI into a final volume of 200 µL per well, in the absence or presence of the chosen TE (peptides, LB, VF-1, PS, RN, PGE2) at different concentrations and following the manufacturer's recommendations. The culture medium was changed 24 h after transduction and the cells were incubated for 48 h more until the plate was analyzed 3 days post-transduction by flow cytometry.
All experiments included a non-transduced control (cells only) without vector exposure, and a control with vectors but without TE (basal transduction). In all assays, a minimum of three replicates (technical replicates) were performed per experimental condition, and were repeated a minimum of three times (experimental replicates) for statistical analysis.
Transduction efficiency was analyzed using an LSR Fortessa cell analyzer (Becton, Dickinson, New Jersey, USA), after 3, 7 or 14 days post-transduction (depending on the target cell type). First, cells were transferred using a multichannel pipette to a U-bottom 96-well plate. Live and dead cells were dis-criminated using 1 µg/mL 7-amino-actinomycin D (7-AAD).
To analyze the transduction efficacy and cytotoxicity of the compounds used, different gates of analysis were defined. Samples of transduced cells (labeled and unlabeled with PI or 7-AAD), with a minimum of 10.000 events in the relevant gate, were acquired. Further, appropriate thresholds were established to define the cell populations. Four final gates were created and applied sequentially: • Gate 1. Plotting forward scatter high or FSC-H (Forward scatter height) versus forward scatter area or FSC-A (Forward scatter area). Here single events were gated to eliminate doublets. • Gate 2. Plotting the Side scatter area (SSC-A) against the Forward scatter area (FSC-A). This gate was used to eliminate cellular debris and atypical and undesired events, taking into account their morphology and complexity. • Gate 3. Thanks to the labeling of the cells with PI or 7-AAD it was possible to calculate the percentage of dead cells and eliminate them from the study. Only live cells were considered for the subsequent analysis gate. • Gate 4. The percentage of live transduced cells was obtained using eGFP fluorescence (FL1). As an additional parameter, the Mean Fluorescence Intensity (MFI) of the transduced cells was measured. The MFI is the mean of all fluorescence intensities of individual cells (or events) in a desired population. In our case, the MFI values obtained represented the mean fluorescence level of eGFP in the transduced cells (gate 4). All data were obtained and analyzed using FACSDiva software v6.2 and FlowJo v10 software (both from BD Biosciences).

[3] = tested on: CD4^+ T cells; assay: Lentiviral (anti-CD19 CAR) transduction enhancement in CD4+ T cells (flow cytometry); type: cell-based, human; conditions: 72 h after transduction; differences between the four compounds not statistically significant (Figure 6)
Protocol: • 1. After isolation and activation of the CD4^+ T cells, a suspension of 10^6 cells/mL was prepared and 100 µL were added per well to a 96-well flat-bottom plate and incubated at 37°C, 5% CO2, and 100% relative humidity. After 24 h in culture, the vector was diluted to the desired concentration and mixed with the different TEs (peptides, LB, VF-1, PS, PGE2), and 50 µL per well of the vector-TEs solution was added. The A3B1:CD8:4-1BB:CD3ζ (also named ARI001-CodonOptimized3 vector), a third generation lentiviral vector encoding an anti-human CD19 CAR, was used for this assay. • 2. After 72 h post-transduction, samples were collected and stained for flow cytometry analysis: First, the entire plate contents were transferred to a pre-labeled 96-well roundbottom plate. Two washes were performed with 1X PBS, adding 100 µL per well and centrifuging the plate for 2' at 2000 rpm. In the last wash, the supernatant was discarded, and 100 µL of a working solution of eFluor™ 450 - Fixable Viability Dye Live/Dead (eBioscience™) was added and incubated for 30' at RT. • 3. Two washes were performed with 200 µL of FACS buffer (PBS 1X + 3% FBS). […] Finally, transduction efficiency was analyzed by flow cytometry to determine the percentage of CAR-positive T cells.

[4] = concentrations higher than 10-15 µM; dose-dependent
Protocol: Studies with the fluorochrome Yo-Pro-1 were performed at the laboratory of Dr. Pablo Pelegrin, at the University of Murcia.

[5] = tested on: NK cells; assay: Lentiviral transduction enhancement in primary NK cells (flow cytometry); type: cell-based, human; conditions: MOI = 5; for fold changes: fold change relative to basal transduction, 1.5 µM
Protocol: • 1. Total blood samples were collected and processed in less than 4 h. After obtaining the peripheral blood mononuclear cells (PBMCs) by density gradient centrifugation (Ficoll), NK cells (following the instructions of the Miltenyi Biotec isolation kit) from human they were seeded in a 24-well plate [10^6 cells per well in 1 mL of complete medium (NK MACS supplemented with 5% AB serum (Tebu-Bio, Le Perray, France), recombinant human IL-2 (rhIL-2) and recombinant human IL-15 (rhIL-15), both from Miltenyi Biotec)], and incubated at 37°C, 5% CO2, and 100% relative humidity. • 2. After 48 h in culture, cells were counted, and about 40,000 cells were seeded in 100 µL of complete medium (per well) in culture-treated 96-well flat-bottom plate. The transduction process was performed as follows: • 3. Calculate the required volume of lentiviral vector for a known number of NK cells and desired MOI, and the vector diluted in complete medium. Simultaneously, prepare all the enhancers to be used in the assay (micellar peptides, LB, PS, VF-1, etc.) at the concentrations recommended by the manufacturers. […] At days 3, 7 and 14 post-transduction, the cells were analyzed by flow cytometry.
as §1
To analyze the transduction efficacy and cytotoxicity of the compounds used, different gates of analysis were defined. […] The percentage of live transduced cells was obtained using eGFP fluorescence (FL1). As an additional parameter, the Mean Fluorescence Intensity (MFI) of the transduced cells was measured. The MFI is the mean of all fluorescence intensities of individual cells (or events) in a desired population. In our case, the MFI values obtained represented the mean fluorescence level of eGFP in the transduced cells (gate 4). All data were obtained and analyzed using FACSDiva software v6.2 and FlowJo v10 software (both from BD Biosciences).

[6] = tested on: NIH/3T3 cells; assay: Lentiviral transduction enhancement in NIH/3T3 cells (GFP+ cells and living cells by flow cytometry); type: cell-based, murine; conditions: micellar peptide at 1 µM; MOI = 1; GFP+ cells 72 h after vector exposure; compared with other TEs (Figure 1)
Protocol: as §2
as §3, with “cytometry. […]” for “cytometry.”
as §1
To analyze the transduction efficacy and cytotoxicity of the compounds used, different gates of analysis were defined. […] The percentage of live transduced cells was obtained using eGFP fluorescence (FL1). […]

[7] = Antimicrobial activity; type: cell-based; conditions: concentrations higher than 10-15 µM; dose-dependent

Sequence: LLNKEIKIEVALARRRRRRRR (polymeric micelles) [Sc-K18-8R, conjugated to polymeric micelles, reference compound]
- enhancing efficacy (transduction efficiencies by flow cytometry) [1]: significant enhancing activity

Sequence: LLNVKMALDIEIRRRRRRRR [DIF-P-8R]
- enhancing activity ([2]; several concentrations, MOI 1 and 5, experiment made only once (Figure 2)): enhancing activity, that was higher at 5-15 µM than at 1 µM

Sequence: LLNIKVKLEAEIRRRRRRRR (poloxamer F-127 micelles) [K18-8R, first 12 amino acids of K18 plus an 8R tail; conjugated to poloxamer F-127 polymeric micelles]
- transduction efficiency [3]: highest transduction efficiency
- cytotoxic activity [4]: predominated
- hemolytic activity [4]: predominated
- fold changes ([5]; day 3): 2.2
- fold changes ([5]; day 14): 3.5
- enhancing activity ([5]; peptides at 1.5 µM, compared with scrambled control, micelle alone and LB (Figure 7)): highest enhancing activity
- transduction enhancing activity [6]: highest transduction enhancing activity
- transduction enhancing activity at higher concentrations ([2]; 5 µM or more, MOI 1 and 5, perhaps due to toxicity (Figure 2)): decreased
- transduction enhancing activity [2]: highest activity
- transduction enhancement ([2]; peptide at 1 µM, MOI 1 and 5, experiment made only once (Figure 2)): highest transduction enhancement
- antimicrobial activity [7]: predominated
- enhancing efficacy (transduction efficiencies by flow cytometry) [1]: highest enhancing efficacy

Sequence: LLNIKVKLEAEIATYRRLLE (poloxamer F-127 micelles) [K18, conjugated to poloxamer F-127 polymeric micelles]
- transduction enhancing activity [2]: highest activity
